Laboratory results reported in ChEMBL document CHEMBL1201862, “PubChem BioAssay data set” (2004).
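Cells were grown in 96-well plates and exposed to each compound for 48 hours at five concentrations; endpoints were interpolated linearly between bracketing concentrations, or set to the highest concentration if not reached. Here, GI50 denotes the concentration required for 50% inhibition of growth.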 Active and inactive are the calls of the source. Cut-off read from the data, not from the text of the source: active = GI50 up to about 1.1 µM and inactive = higher.

Assays:
Assay in all cases: inhibition of tumour cell growth, NCI panel, 48 h
HOP-92 = system: HOP-92
DU-145 = system: DU-145
U-251 = system: U-251
K562 = system: K562
NCI-H522 = system: NCI-H522
UACC-257 = system: UACC-257
CAKI-1 = system: CAKI-1
NCI/ADR-RES = system: NCI/ADR-RES
MDA-N = system: MDA-N
UO-31 = system: UO-31
HCT-116 = system: HCT-116
T47D = system: T47D
SF-539 = system: SF-539
SK-MEL-5 = system: SK-MEL-5
PC-3 = system: PC-3
786-0 = system: 786-0
MOLT-4 = system: MOLT-4
A498 = system: A498
A549 = system: A549
SN12C = system: SN12C

Measured: GI50

CCOC(=O)C(O)Cc1cnc2ccccc2n1 (stereo not given)
inactive: HOP-92 > 100 µM | DU-145 > 100 µM | U-251 > 100 µM | K562 > 100 µM | NCI-H522 79.3 µM | UACC-257 > 100 µM | CAKI-1 > 100 µM | NCI/ADR-RES > 100 µM | MDA-N > 100 µM | UO-31 > 100 µM | HCT-116 > 100 µM | T47D > 100 µM | SF-539 > 100 µM | SK-MEL-5 > 100 µM | PC-3 > 100 µM | 786-0 > 100 µM | MOLT-4 > 100 µM | A498 > 100 µM | A549 > 100 µM | SN12C > 100 µM

c1cc(CSSCc2ccncc2)ccn1
inactive: HOP-92 25.9 µM | DU-145 28.9 µM | U-251 23.3 µM | K562 14.8 µM | NCI-H522 12.9 µM | UACC-257 15.9 µM | CAKI-1 29.5 µM | NCI/ADR-RES 30.5 µM | MDA-N 12.9 µM | UO-31 8.99 µM | HCT-116 14.1 µM | T47D > 67.9 µM | SF-539 8.02 µM | SK-MEL-5 17.7 µM | PC-3 21.7 µM | 786-0 10.4 µM | MOLT-4 3.21 µM | A498 42.7 µM | A549 27.3 µM | SN12C 25.2 µM
